Measured values: EPA's CvTdb concentration-time database (doi:10.1093/toxsci/kfy020)

Columns and labels:
Assay in all cases: concentration in plasma after dosing
rat [1] = details: dosed: Imazalil, 1.0000000000 mg/kg, iv, male, Sprague-Dawley
rat [2] = details: Sprague-Dawley
rat [3] = details: dosed: Imazalil, 1.0000000000 mg/kg, iv, male, Sprague-Dawley; remark: listed apart in the source
rat [4] = details: dosed: Nilvadipine, 10.0000000000 mg/kg, oral, male, Sprague-Dawley
rat [5] = details: dosed: Novaluron, 2.0000000000 mg/kg, oral, male, Sprague-Dawley
rat [6] = details: dosed: Novaluron, 0.4000000000 mg/kg, iv, male, Sprague-Dawley
rat [7] = details: dosed: Novaluron, 2.0000000000 mg/kg, oral, male, Sprague-Dawley; remark: listed apart in the source
rat [8] = details: dosed: Novaluron, 0.4000000000 mg/kg, iv, male, Sprague-Dawley; remark: listed apart in the source
rat [9] = details: dosed: Novaluron, 2.0000000000 mg/kg, oral, male, Sprague-Dawley; remark: listed apart in the source
rat [10] = details: dosed: Propyzamide, 3.0000000000 mg/kg, oral, male, Sprague-Dawley
rat [11] = details: dosed: Propyzamide, 0.6 mg/kg, iv, male, Sprague-Dawley
rat [12] = details: dosed: Propyzamide, 3.0000000000 mg/kg, oral, male, Sprague-Dawley; remark: listed apart in the source
rat [13] = details: dosed: Propyzamide, 0.6 mg/kg, iv, male, Sprague-Dawley; remark: listed apart in the source
rat [14] = details: dosed: Propyzamide, 3.2120000000 mg/kg, oral, male, Sprague-Dawley
rat [15] = details: dosed: Propyzamide, 3.2120000000 mg/kg, oral, male, Sprague-Dawley; remark: listed apart in the source
rat [16] = details: dosed: Propyzamide, 3.0000000000 mg/kg, oral, male, Sprague-Dawley; remark: listed apart in the source
rat [17] = details: dosed: Pyrithiobac sodium, 1.037 mg/kg, oral, male, Sprague-Dawley
rat [18] = details: dosed: Pyrithiobac sodium, 1.037 mg/kg, oral, male, Sprague-Dawley; remark: listed apart in the source

C=CCOC(Cn1ccnc1)c1ccc(Cl)cc1Cl (stereo not given) [Imazalil]
concentration in plasma [ng/mL]
Details	0.5 h	1 h	2 h	4 h	5 min	10 min
rat [1]	23.8	12.2	6.6	3.4	125	73.5
rat [3]	33.3	22	6.8	5.3	162	71.5

concentration in plasma [ng/mL], rat [2], dosed: Imazalil, male
Details	0.25 h	0.5 h	1 h	2 h	4 h	5 min	10 min
1.0000000000 mg/kg, iv	–	25.6	20.7	7.2	3.6	139	63.9
5.0000000000 mg/kg, oral	9.7	11.4	7.9	1	–	–	–

COC(=O)C1=C(C#N)NC(C)=C(C(=O)OC(C)C)C1c1cccc([N+](=O)[O-])c1 (stereo not given) [Nilvadipine]
rat [4]
Details	concentration in plasma [ng/mL]
0.25 h	271
0.5 h	160
1 h	75.8
2 h	99.2
4 h	27.8
6 h	22.1
8 h	15
10 h	1.26

concentration in plasma [ng/mL], rat [2], dosed: Nilvadipine
Details	0.25 h	0.5 h	1 h	2 h	4 h	5 min	6 h	8 h	10 h
0.1000000000 mg/kg, iv, female	16	8	4.43	2.48	0.674	27.3	–	–	–
0.1000000000 mg/kg, iv, male	11.8	7.16	3.5	2.19	0.824	29.2	0.387	–	–
10.0000000000 mg/kg, oral, male	34.6	44.3	14.6	10.7	3.01	–	4.89	2.84	12.2

O=C(NC(=O)c1c(F)cccc1F)Nc1ccc(OC(F)(F)C(F)OC(F)(F)F)c(Cl)c1 (stereo not given) [Novaluron]
concentration in plasma [ng/mL]
Details	rat [5]	rat [6]	rat [7]	rat [8]	rat [9]
0.25 h	5.18	–	14	–	9.95
0.5 h	25.3	125	37.7	202	24
1 h	70.4	112	75	191	49.9
2 h	135	68.3	165	120	63
4 h	151	32.7	149	75.9	132
5 min	–	241	–	283	–
8 h	148	31.4	191	34.7	89.1
10 min	–	43.2	–	188	–
12 h	172	11.6	129	21.7	117
24 h	44.3	8.64	59.6	9.78	81.5
48 h	29.8	–	40.7	5.04	35
72 h	14.6	–	22.9	5.1	16.2

rat [2], dosed: Novaluron, male
Details	concentration in plasma [ng/mL]
0.25 h, 2.0000000000 mg/kg, oral	2.87
0.5 h, 0.4000000000 mg/kg, iv	194
0.5 h, 2.0000000000 mg/kg, oral	23.8
1 h, 0.4000000000 mg/kg, iv	176
1 h, 2.0000000000 mg/kg, oral	70.5
2 h, 0.4000000000 mg/kg, iv	188
2 h, 2.0000000000 mg/kg, oral	137
4 h, 0.4000000000 mg/kg, iv	121
4 h, 2.0000000000 mg/kg, oral	168
5 min, 0.4000000000 mg/kg, iv	252
8 h, 0.4000000000 mg/kg, iv	48.3
8 h, 2.0000000000 mg/kg, oral	199
10 min, 0.4000000000 mg/kg, iv	161
12 h, 0.4000000000 mg/kg, iv	21.8
12 h, 2.0000000000 mg/kg, oral	141
24 h, 0.4000000000 mg/kg, iv	15.9
24 h, 2.0000000000 mg/kg, oral	53.2
48 h, 0.4000000000 mg/kg, iv	6.27
48 h, 2.0000000000 mg/kg, oral	25.3
72 h, 0.4000000000 mg/kg, iv	2.8
72 h, 2.0000000000 mg/kg, oral	21.4

C#CC(C)(C)NC(=O)c1cc(Cl)cc(Cl)c1 [Propyzamide]
concentration in plasma [ng/mL]
Details	rat [10]	rat [11]	rat [12]	rat [13]	rat [14]	rat [15]	rat [16]
0.25 h	43.1	–	62.6	–	228	217	125
0.5 h	104	65.8	83.7	46.9	302	244	118
1 h	75.4	49.6	61.9	23.8	262	205	90.6
2 h	46.3	19.8	29.5	9.3	158	98.2	50.7
4 h	54	7.8	49.3	1.2	234	159	17.4
5 min	–	156	–	119	–	–	–
8 h	44.1	–	50.9	1.4	116	148	24.1
10 min	–	131	–	122	–	–	–
12 h	8.2	0.6	6.1	–	–	–	8.2
24 h	1.5	–	–	–	3.06	2.89	–
48 h	–	–	–	–	0.269	0.376	–
72 h	–	–	–	–	0.0997	0.0426	–

rat [2], dosed: Propyzamide, male
Details	concentration in plasma [ng/mL]
0.25 h, 3.0000000000 mg/kg, oral	96.6
0.25 h, 3.2120000000 mg/kg, oral	252
0.5 h, 0.6 mg/kg, iv	47.6
0.5 h, 3.0000000000 mg/kg, oral	130
0.5 h, 3.2120000000 mg/kg, oral	359
1 h, 0.6 mg/kg, iv	15.1
1 h, 3.0000000000 mg/kg, oral	103
1 h, 3.2120000000 mg/kg, oral	323
2 h, 3.0000000000 mg/kg, oral	58.4
2 h, 3.2120000000 mg/kg, oral	153
4 h, 0.6 mg/kg, iv	3.1
4 h, 3.0000000000 mg/kg, oral	39.7
4 h, 3.2120000000 mg/kg, oral	174
5 min, 0.6 mg/kg, iv	165
8 h, 3.0000000000 mg/kg, oral	49.7
8 h, 3.2120000000 mg/kg, oral	83.5
10 min, 0.6 mg/kg, iv	117
12 h, 3.0000000000 mg/kg, oral	16.8
24 h, 3.0000000000 mg/kg, oral	1.2
24 h, 3.2120000000 mg/kg, oral	2.23
48 h, 3.2120000000 mg/kg, oral	0.327
72 h, 3.2120000000 mg/kg, oral	0.0846

COc1cc(OC)nc(Sc2cccc(Cl)c2C(=O)[O-])n1.[Na+] [Pyrithiobac sodium]
rat [2], dosed: Pyrithiobac sodium, 1.037 mg/kg, oral, male
Details	concentration in plasma [ng/mL]
0.25 h	1080
0.5 h	1060
1 h	1190
2 h	458
4 h	126
8 h	37
24 h	0.55
72 h	0.206

concentration in plasma [ng/mL]
Details	0.25 h	0.5 h	1 h	2 h	4 h	8 h	24 h
rat [17]	1380	1560	1090	437	112	31.9	0.833
rat [18]	1400	1190	1270	331	154	65.6	1.06
